Columns and labels:
PBRM1-p53 interaction = assay: Co-immunoprecipitation of Flag-PBRM1 and Myc-p53 (anti-Flag M2) in H1299 cells; type: cell-based
Description: Fig. 1 PBRM1 and p53 display a physical association that is enhanced after DNA damage. a U2OS cells (left) and HEK293T cells (right) were transfected with vector or Flag-PBRM1 and harvested for immunoprecipitation with Flag-M2 beads and elution with 3X Flag peptide. […] Lysates were subjected to immunoprecipitation with Flag-M2 beads. […] Lysates were immunoprecipitated with p53 antibody. The bound PBRM1 and p53 were examined by immunoblots. Source data are provided as a Source Data file.
For anti-Flag immunoprecipitation, cell pellets harvested from one 10 cm culture dish were resuspended in 500 µl hypotonic buffer (10 mM Tris-HCl, pH 8.0, 1.5 mM MgCl2, 10 mM KCl) with protease and phosphatase inhibitors, 2 μM TSA and 10 mM NAM, and samples were incubated on ice for 15 min. Twenty-five microliters of Triton X-100 was added and samples were vortexed for 10 s. After centrifuging for 30 s at 14,000 × g, supernatants were removed and pellets were resuspended in 100 µl hypertonic buffer (20 mM Tris-HCl pH 8.0, 420 mM KCl, 1.5 mM MgCl2, 20% (v/v) glycerol) with protease and phosphatase inhibitors, 2 μM TSA and 10 mM NAM and vortexed for 10 s. Pellets were incubated on ice for 40 min and vortexed for 15 s every 10 min. After centrifuging for 10 min at 14,000 × g, supernatants were collected and diluted with 300 µl EBC buffer (50 mM Tris-HCl (pH 7.5), 120 mM NaCl, 0.5% NP-40) with protease and phosphatase inhibitors, 2 μM TSA and 10 mM NAM. […] Beads were washed four times with EBC buffer and eluted with 3X Flag peptide (F4799, Sigma-Aldrich) overnight at 4 °C. The input and Flag-elution were analyzed by SDS-PAGE and immunoblot.
Supplementary Figure 2. […]
a. Vectors, Flag-PBRM1 or Myc-p53 were transfected into H1299 cells as indicated, and treated with 5 µM nicotinamide or vehicle. Lysates were used for anti-Flag immunoprecipitation and 3X Flag peptide elution. The inputs and eluates were immunoblotted with the indicated antibodies. […]
Flag-PBRM1, wildtype or K382Q mutated Myc-p53 were transfected into H1299 cells with indicated combinations. Lysates were used for anti-Flagimmunoprecipitation followed by Flag peptide elution. […]

HCT116 cells = assay: RT-qPCR of p53 targets, HCT116 parental and PBRM1 KO cells; type: cell-based; design: PUMA expression / PIDD expression: reference not given here; conditions: 50 μM, 24 h
Experimental: Total RNA was extracted from cells using the RNeasy Plus Mini Kit (74136, Qiagen), and the concentration was measured using the NanoDrop ND-1000 system (Thermo Scientific). Reverse transcription was performed using the First Strand cDNA Synthesis Kit (NP100042, Origen) with 0.5 µg total RNA. Real-time PCR was performed with Maxima SYBR Green qPCR Master Mix (K0253, Thermo Scientific) using the Roche LightCycler 480. The primers used for real-time PCR are listed as follows: q-GAPDH-F: […], q-GAPDH-R: […], q-CDKN1A-F: […], q-CDKN1A-R: […], q-MDM2-F: […], q-MDM2-R: […], q-BAX-F: […], q-BAX-R: […], q-PUMA-F: […], q-PUMA-R: […], q-NOXA-F: […], q-NOXA-R: […], q-GADD45a-F: […], q-GADD45a-R: […], q-APAF1-F: […], q-APAF1-R: […], q-BAI1-F: […], q-BAI1-R: […], q-BCL2A1-F: […], q-BCL2A1-R: g[…], q-BTG2-F: […], q-BTG2-R: […], q-CDC25c-F: […], q-CDC25c-R: […], q-FAS-F: […], q-FAS-R: […], q-PIDD-F: […], q-PIDD-R: […], q-RPRM-F: […], q-RPRM-R: […], q-TNFRSF10B-F: […] and q-TNFRSF10B-R: […]. GAPDH was used as an internal control. Data are shown as mean ± SEM for three independent experiments.
Supplementary Figure 4. PBRM1 is required for full p53 transcriptional activity.
a, b. HCT116 parental and PBRM1 KO cells (combination of eight clones) were treated with
(a). RNA was extracted and reverse transcribed from the indicated cells treated with 50 μM
etoposide. […]
p-values were calculated using the paired two -tailed Student’s t-test. c, d. […]

In the case of `COc1cc([C@@H]2c3cc4c(cc3[C@@H](O[C@@H]3O[C@@H]5CO[C@@H](C)O[C@H]5[C@H](O)[C@H]3O)[C@H]3COC(=O)[C@H]23)OCO4)cc(OC)c1O` [Etoposide], the “PBRM1 and exogenous p53 protein levels” value (PBRM1-p53 interaction; H1299, etoposide 50 μM or bleomycin 10 μg/ml) is reported as “neither the PBRM1 nor the exogenous p53 levels changed”, the PBRM1-p53 interaction (PBRM1-p53 interaction; H1299 co-transfected with PBRM1 and p53, etoposide 50 μM) is reported as “enhanced” and the APAF1 expression (HCT116 cells; HCT116-PBRM1-KOs, assay 1) is reported as 3.8371. The BAX expression (HCT116 cells; HCT116-PBRM1-KOs, assay 1) was 1.7963, the BCL2A1 expression (HCT116 cells; HCT116-PBRM1-KOs, assay 1) was 19.7667 and the BTG2 expression (HCT116 cells; HCT116-PBRM1-KOs, assay 1) was 11.7942. It also gave a CDKN1A expression (HCT116 cells; HCT116-PBRM1-KOs, assay 1) of 22.8639, a GADD45A expression (HCT116 cells; HCT116-PBRM1-KOs, assay 1) of 3.9586 and an MDM2 expression (HCT116 cells; HCT116-PBRM1-KOs, assay 1) of 3.9724. It also gave an NOXA expression (HCT116 cells; HCT116-PBRM1-KOs, assay 1) of 3.0525, a PIDD expression (HCT116 cells; HCT116-PBRM1-KOs, assay 1) of 2.3295 and a PUMA expression (HCT116 cells; HCT116-PBRM1-KOs, assay 1) of 4.8793. It also gave an RPRM expression (HCT116 cells; HCT116-PBRM1-KOs, assay 1) of 2.5491, an APAF1 expression (HCT116 cells; HCT116-PBRM1-KOs, assay 2) of 1.6529 and a BAX expression (HCT116 cells; HCT116-PBRM1-KOs, assay 2) of 2.3457. For the same compound, the BCL2A1 expression (HCT116 cells; HCT116-PBRM1-KOs, assay 2) was 6.9761, the BTG2 expression (HCT116 cells; HCT116-PBRM1-KOs, assay 2) was 7.21 and the CDKN1A expression (HCT116 cells; HCT116-PBRM1-KOs, assay 2) was 14.0419. For the same compound, the GADD45A expression (HCT116 cells; HCT116-PBRM1-KOs, assay 2) was 2.1289, the MDM2 expression (HCT116 cells; HCT116-PBRM1-KOs, assay 2) was 5.9039 and the NOXA expression (HCT116 cells; HCT116-PBRM1-KOs, assay 2) was 3.6808. It also gave a PIDD expression (HCT116 cells; HCT116-PBRM1-KOs, assay 2) of 1.4093, a PUMA expression (HCT116 cells; HCT116-PBRM1-KOs, assay 2) of 7.235 and an RPRM expression (HCT116 cells; HCT116-PBRM1-KOs, assay 2) of 2.7797. It also gave an APAF1 expression (HCT116 cells; HCT116-PBRM1-KOs, assay 3) of 1.6644, a BAX expression (HCT116 cells; HCT116-PBRM1-KOs, assay 3) of 2.3134 and a BCL2A1 expression (HCT116 cells; HCT116-PBRM1-KOs, assay 3) of 9.2884. The BTG2 expression (HCT116 cells; HCT116-PBRM1-KOs, assay 3) was 7.1602, the CDKN1A expression (HCT116 cells; HCT116-PBRM1-KOs, assay 3) was 10.4953 and the GADD45A expression (HCT116 cells; HCT116-PBRM1-KOs, assay 3) was 3.1241. It also gave an MDM2 expression (HCT116 cells; HCT116-PBRM1-KOs, assay 3) of 5.945, an NOXA expression (HCT116 cells; HCT116-PBRM1-KOs, assay 3) of 3.6554 and a PIDD expression (HCT116 cells; HCT116-PBRM1-KOs, assay 3) of 1.4897. The PUMA expression (HCT116 cells; HCT116-PBRM1-KOs, assay 3) was 3.2117, the RPRM expression (HCT116 cells; HCT116-PBRM1-KOs, assay 3) was 1.3828 and the APAF1 expression (HCT116 cells; HCT116, assay 1) was 4.2871. The BAX expression (HCT116 cells; HCT116, assay 1) was 2.7702, the BCL2A1 expression (HCT116 cells; HCT116, assay 1) was 22.8639 and the BTG2 expression (HCT116 cells; HCT116, assay 1) was 12.7286. For the same compound, the CDKN1A expression (HCT116 cells; HCT116, assay 1) was 28.6408, the GADD45A expression (HCT116 cells; HCT116, assay 1) was 4.4076 and the MDM2 expression (HCT116 cells; HCT116, assay 1) was 4.6589. It also gave an NOXA expression (HCT116 cells; HCT116, assay 1) of 3.0738, a PIDD expression (HCT116 cells; HCT116, assay 1) of 3.0525 and a PUMA expression (HCT116 cells; HCT116, assay 1) of 4.4076. For the same compound, the RPRM expression (HCT116 cells; HCT116, assay 1) was 3.6301, the APAF1 expression (HCT116 cells; HCT116, assay 2) was 2.1372 and the BAX expression (HCT116 cells; HCT116, assay 2) was 2.6851. For the same compound, the BCL2A1 expression (HCT116 cells; HCT116, assay 2) was 13.3173, the BTG2 expression (HCT116 cells; HCT116, assay 2) was 8.1398 and the CDKN1A expression (HCT116 cells; HCT116, assay 2) was 17.6304. It also gave a GADD45A expression (HCT116 cells; HCT116, assay 2) of 2.5584, an MDM2 expression (HCT116 cells; HCT116, assay 2) of 5.7624 and an NOXA expression (HCT116 cells; HCT116, assay 2) of 3.8683. The PIDD expression (HCT116 cells; HCT116, assay 2) was 2.0705, the PUMA expression (HCT116 cells; HCT116, assay 2) was 5.3332 and the RPRM expression (HCT116 cells; HCT116, assay 2) was 2.9362. It also gave an APAF1 expression (HCT116 cells; HCT116, assay 3) of 2.021, a BAX expression (HCT116 cells; HCT116, assay 3) of 2.7226 and a BCL2A1 expression (HCT116 cells; HCT116, assay 3) of 11.9548. It also gave a BTG2 expression (HCT116 cells; HCT116, assay 3) of 8.4269, a CDKN1A expression (HCT116 cells; HCT116, assay 3) of 15.6707 and a GADD45A expression (HCT116 cells; HCT116, assay 3) of 3.0105. The MDM2 expression (HCT116 cells; HCT116, assay 3) was 5.4264, the NOXA expression (HCT116 cells; HCT116, assay 3) was 4.6765 and the PIDD expression (HCT116 cells; HCT116, assay 3) was 1.9453. For the same compound, the PUMA expression (HCT116 cells; HCT116, assay 3) was 3.1939 and the RPRM expression (HCT116 cells; HCT116, assay 3) was 2.0097.
